Laboratory results: patent US12600725B2 (Memorial Sloan-Kettering Cancer Center, priority 2013, dated 2026)

Tests used:
C2C12 cells = test: Viability of C2C12 cells visualized by light microscopy; assay type: cell-based, mouse; conditions: 24 h
[1] = system: EGFR and its downstream signaling in HMEC cells; test: Western blot of EGFR and downstream signaling in normal cells; assay type: cell-based, human; conditions: 24 h
Procedure: For comparison, the agent was also tested in a normal cell line, human mammary epithelial cells (HMECs). […] Without wishing to be bound by any particular theory, it is believed that a Grp94 selective inhibitor may therefore have a better therapeutic index than a direct RTK modulator (i.e. TKI or antibody) because it will act on the RTK only in conditions of oncogenic overexpression (see EGFR in TNBC cell lines vs HMEC). […] Approximately half of cases of triple-negative breast cancer (TNBC) and inflammatory breast cancer (IBC) overexpress EGFR, nonetheless clinical trials testing EGFR inhibitors reported lack of or limited benefit (Masuda H. et al. Breast Cancer Res Treat. 2012 November; 136(2):331-45). Without wishing to be bound by any particular theory, it is believed that such ineffectiveness is due to a crosstalk between EGFR and c-Met or other RTKs, because strategies that knocked down EGFR either by siRNA or by mixtures of antibodies that induces robust degradation of EGFR, led to reduced viability of TNBC cells (Mueller et al., Breast Cancer Res. 2012 Jul. 12; 14(4):R^104; Ferraro et al., Proc Natl Acad Sci USA. 2013 Jan. 29; 110(5):1815-20. PMID:23319610). […] Protein concentrations were determined using BCA kit (Pierce) according to the manufacturer's instructions. […]

[2] = system: downstream EGFR signaling in MDA-MB-468 tumors; test: PD analysis of tumors (Western blot); assay type: in vivo, mouse; conditions: 75 mg/kg ip
Procedure: For this purpose we used mice bearing MDA-MB-468 tumors (a triple-negative breast tumor with EGFR-overexpression). Because of the specific affinity of the provided Grp94 inhibitors for tumor Grp94, we performed PK/PD studies that are tailored for this purpose. In this PK/PD study we incorporated two time points, a 2 h and a 24 h time of sacrifice post-administration. The early time point is incorporated to test the biodistribution of the agent to the site of its action, the tumor; PU-WS13 was readily distributed to tumor mass with -850 μM noted in tumor at 2 h versus 100 μM in the plasma (FIG. 25A). […] The concentration of PU-WS13 in the tumor at 24 h post-administration of single dose of 75 mg/kg was 0.5 μM. […] We also analyzed the potential suppression by PU-WS13 of normal Grp94 functions. A “housekeeping” function for Grp94 was identified using a conditional knock-out mouse model; that study found a role for Grp94 in normal GI cells, i.e. regulation of the Wnt receptor LRP6 (Liu et al., Proc Natl Acad Sci USA. 2013 Apr. 23; 110(17):6877-82). […]
The other half of tumor tissues were evaluated for changes in EGFR and other PD markers as established in our laboratory. […] After quantifying the protein concentrations by BCA, 25-100ug proteins were loaded into SDS-PAGE and subjected to immunoblotting.

CC(C)NCCCn1c(Sc2cc(Cl)cc(Cl)c2)nc2c(N)ncnc21 [PU-WS13]
toxicity to C2C12 cells (C2C12 cells): not toxic
effect on EGFR and its downstream signaling in normal cells [1]: does not affect EGFR and its downstream signaling
PD effect in tumor (p-AKT and p-ERK inhibition) [2]: partial suppression of downstream EGFR signaling
